Reference: ChEMBL document CHEMBL1275465, “Plasmid-mediated QnrS2 determinant from a clinical Aeromonas veronii isolate” (2008)
In brackets after ≈: the same amount, converted by molar mass.

Legend:
Type in all cases: functional
[1] = system: Aeromonas veronii; experiment: Antimicrobial activity against QnrS2-negative Aeromonas veronii CECT 4260 harboring GyrA Ser83 and ParC Ser80 mutant gene by Etest
[2] = system: Aeromonas veronii; experiment: Antimicrobial activity against QnrS2-negative Aeromonas veronii CECT 4258 harboring GyrA Ser83 and ParC Ser80 mutant gene by Etest
[3] = system: Aeromonas veronii; experiment: Antimicrobial activity against QnrS2-positive Aeromonas veronii A272 harboring GyrA Ile83 and ParC Ile80 mutant gene by Etest
[4] = system: Escherichia coli; experiment: Antimicrobial activity against Escherichia coli J53 by Etest
[5] = system: Escherichia coli; experiment: Antimicrobial activity against Escherichia coli J53 harboring QnrS2 and GyrA Ile83 and ParC Ile80 mutant gene by Etest

SMILES | MIC [1] | MIC [2] | MIC [3] | MIC [4] | MIC [5]
O=C(O)c1cn(C2CC2)c2cc(N3CCNCC3)c(F)cc2c1=O [CIPROFLOXACIN] | < 0.02 µg/mL | < 0.02 µg/mL | 8 µg/mL (≈ 24.1 µM) | 0.023 µg/mL (≈ 0.0694 µM) | 
CCn1cc(C(=O)O)c(=O)c2ccc(C)nc21 [NALIDIXIC ACID] | < 0.25 µg/mL | < 0.25 µg/mL | > 256 µg/mL | 4 µg/mL (≈ 17.2 µM) | > 256 µg/mL
CCn1cc(C(=O)O)c(=O)c2cc(F)c(N3CCNCC3)cc21 [NORFLOXACIN] | < 0.02 µg/mL | < 0.02 µg/mL | 12 µg/mL (≈ 37.6 µM) | 0.19 µg/mL (≈ 0.595 µM) | 2 µg/mL (≈ 6.26 µM)
